Results on 10 compounds are retold here after ChEMBL document CHEMBL3124768, “Substituted imidazothiazoles as inhibitors of viral polymerase” (ACS Med Chem Lett, 2014).

The test system of assay [1] is Hepatitis C virus. In words: Antiviral activity against Hepatitis C virus genotype 1b isolate Con1 assessed as inhibition of HCV replicon-encoded Renilla luciferase reporter activity after 72 hrs by cell-based replicon assay. The assay is classed as functional, organism-based, Hepacivirus hominis. Particulars: isolate Con1, 72 h.
A short description of assay [2]: Inhibition of HCV genotype 1b isolate BK truncated NS5B polymerase lacking C-terminal 21 amino acids assessed as inhibition of 33P-GTP incorporation using Poly(rC) template by scintillation counting analysis. Also noted: species or system Hepatitis C virus (isolate BK).

On to `CNC(=O)c1c(-c2ccc(F)cc2)nc2sc(-c3cc(C(=O)NC(C)(C)c4ncccn4)ccc3C)cn12`, for which, in assay [1], the EC50 was < 250 nM. The IC50 in assay [2] is 1000 nM.

`CNC(=O)c1c(-c2ccc(F)cc2)nc2sc(-c3cc(C(=O)NC(C)(C)c4ccccc4)ccc3C)cn12`: the EC50 in assay [1] was < 250 nM. Further, the concentration for half-maximal inhibition (IC50) in assay [2] is < 250 nM.

`CNC(=O)c1c(-c2ccc(F)cc2)nc2sc(-c3cccc(C(=O)NC(C)(C)c4ccccc4)c3)cn12`: the EC50 in assay [1] was < 250 nM. Besides, in assay [2], the half-inhibitory concentration (IC50) is < 250 nM.

On to `CNC(=O)c1c(-c2ccc(F)cc2)nc2sc(-c3cccc(C(=O)NC4(c5ccccn5)CC4)c3)cn12`, for which the concentration giving a half-maximal response (EC50) in assay [1] was < 250 nM. Also, the IC50 in assay [2] was < 250 nM.

Regarding `CNC(=O)c1c(-c2ccc(F)cc2)nc2sc(-c3cccc(C(=O)NC4(c5ccccc5)CC4)c3)cn12`, the EC50 in assay [1] is < 250 nM. The IC50 in assay [2] turned out to be 1000 nM.

`CNC(=O)c1c(-c2ccc(F)cc2)nc2sc(-c3cc(C(=O)N[C@@H](C)c4ccccc4)ccc3C)cn12`: the concentration for a half-maximal effect (EC50) in assay [1] is < 250 nM. The IC50 in assay [2] is < 250 nM.

Regarding `CNC(=O)c1c(-c2ccc(F)cc2)nc2sc(-c3cc(C(=O)NC(C)(C)C(=O)OC)ccc3C)cn12`, the concentration for a half-maximal effect (EC50) in assay [1] was < 250 nM. Moreover, the 50% inhibitory concentration (IC50) in assay [2] came to 1000 nM.

Take `CNC(=O)c1c(-c2ccc(F)cc2)nc2sc(-c3cc(C(=O)NC4(C(C)C)CC4)ccc3C)cn12`: the concentration giving a half-maximal response (EC50) in assay [1] was < 250 nM. In addition, the IC50 in assay [2] was 1000 nM.

For the compound `CNC(=O)c1c(-c2ccc(F)cc2)nc2sc(-c3cc(C(=O)NC(C)(C)c4ccccc4)ccc3OC)cn12`, the concentration for a half-maximal effect (EC50) in assay [1] is < 250 nM. The IC50 in assay [2] is < 250 nM.

For the compound `CNC(=O)c1c(-c2ccc(F)cc2)nc2sc(-c3cc(C(=O)NC(C)(C)c4ccccc4)c(OC)cc3C)cn12`, in assay [1], the EC50 is < 250 nM. For the same compound, the IC50 in assay [2] was < 250 nM.
